Results: article PMC8068036, “Synthesis of New Biscoumarin Derivatives, In Vitro Cholinesterase Inhibition, Molecular Modelling and Antiproliferative Effect in A549 Human Lung Carcinoma Cells” (International Journal of Molecular Sciences, 2021)
Entries after “also recorded” stand apart in the source; their conditions may differ.

What was measured:
[1] = tested on: A549 cells; experiment: Quantification of cell number and viability (eosin staining); type: cell-based, human; conditions: 35 and 65 μM, 24 h, eosin negative cells
Method: For the assessment of total cell numbers and viability within individual experimental groups, floating and adherent cells were harvested after treatment with the studied derivatives and evaluated using a Bürker chamber with eosin staining. A549 cells were plated at a density of 135 × 10^3 cell/well into a 6-well plate and treated with different concentrations of derivatives (35 and 65 µM) for 24 hrs. The total cell number was expressed as a percentage of the total cell number of the untreated control. Viability was expressed as a percentage of viable, eosin negative cells. The results are presented as the average percentage of cells from three independent experiments.

[2] = tested on: A549 cells; experiment: Mitotic activity (Ki67 index) by immunolabelling and confocal microscopy; type: cell-based, human; conditions: 24 h, control 90.6 ± 5.7%
Method: The studied biscoumarin derivatives were added to cells seeded on 12-well μ-Chamber slides for 24 h. After cultivation with the derivatives, the samples (both the control without the derivatives and experimental groups) were washed with a 0.1 M PBS solution buffer to remove all non-cell-absorbed derivative residues and fixed with 4% paraformaldehyde for 20 min at RT. Alternatively, cells were incubated with Mitotracker Red (0.5 µM; Thermo Fisher Scientific, Waltham, MA, USA) for 30 min at 37 °C, washed with 0.1 M PBS, and fixed with 4% paraformaldehyde for 20 min at RT. For the quantification of proliferative activity and programmed cell death, samples were incubated overnight at 4 °C with the mouse anti-Ki67 antibody (NCL-L-Ki67-MM1, 1:100, Leica Biosystems, Wetzlar, Germany) and rabbit anti-cleaved PARP (cat. no. 94885, 1:100, Cell Signaling, Danvers, MA, USA) diluted in 0.1 M PBS containing 1% normal donkey serum (Jackson Immunoresearch, Cambridgeshire, Great Britain) and 0.3% Triton-X 100. […]
All samples were evaluated using a Leica TCS SP5X confocal system (Leica Microsystems, Mannheim, Germany). The biscoumarin derivatives were visualized in cells using a 405 nm laser, and the fluorescence was captured in the range of 420–480 nm with identical exposure parameters for all samples. […] Microphotographs were taken with a 40× objective lens (NA = 0.75; voxel size 223 × 223 nm) and a 63× oil lens (NA = 1.4; voxel size 171 × 171 nm); the images were captured and analyzed using LAS AF software (Leica Microsystems, Wetzlar, Germany).
The proliferative activity of cells incubated with the studied derivatives was expressed as a Ki67 index. In all samples (n = 3 samples per each experimental group), the number of Ki67^+ nuclei was calculated in groups of 100 randomly selected cells. […]

[3] = in vitro
Method: The parallel artificial membrane permeability assay (PAMPA) is used as a non-cell-based in vitro assay to predict BBB penetration and is carried out in a coated 96-well membrane filter. In our assays, the filter membrane of the donor plate was coated with PBL (Polar Brain Lipid, Avanti, Denver, CO, USA) in dodecane (4 µL of 20 mg mL^−1 PBL in dodecane), and the acceptor well was filled with 300 µL of phosphate buffered saline (PBS) (pH 7.4; VA). The tested compounds were first dissolved in DMSO, and the resulting mixture was diluted with PBS (pH 7.4) to reach the final concentration (40–100 µM) in the donor well. […] Three hundred microliters of the donor solution (VD) were added to the donor wells, and the donor filter plate was carefully placed onto the acceptor plate to ensure that the coated membrane was “in contact” with both the donor solution and the acceptor buffer. The test compound diffused from the donor well through the polar brain lipid membrane (area = 0.28 cm^2) to the acceptor well. The concentration of the tested compound in both the donor and acceptor wells was assessed after 3, 4, 5, and 6 h of incubation, respectively, in quadruplicate using a UV plate reader Synergy HT (Biotek, Winooski, VT, USA) at the maximum absorption wavelength of each compound. Additionally, solutions at the theoretical equilibrium of the given compound (i.e., the theoretical concentration if the donor and acceptor compartment were simply combined) were also prepared.

[4] = target: T1, hBChE (human plasma) (Homo sapiens, UniProt P06276); experiment: biochemical; type: biochemical; conditions: human plasma BChE, mean of at least three experiments
T1 construct: Human plasma was used as a source of BChE; from tissue; host or cells: human plasma from heparinized blood
T1 sequence (P06276 29-602): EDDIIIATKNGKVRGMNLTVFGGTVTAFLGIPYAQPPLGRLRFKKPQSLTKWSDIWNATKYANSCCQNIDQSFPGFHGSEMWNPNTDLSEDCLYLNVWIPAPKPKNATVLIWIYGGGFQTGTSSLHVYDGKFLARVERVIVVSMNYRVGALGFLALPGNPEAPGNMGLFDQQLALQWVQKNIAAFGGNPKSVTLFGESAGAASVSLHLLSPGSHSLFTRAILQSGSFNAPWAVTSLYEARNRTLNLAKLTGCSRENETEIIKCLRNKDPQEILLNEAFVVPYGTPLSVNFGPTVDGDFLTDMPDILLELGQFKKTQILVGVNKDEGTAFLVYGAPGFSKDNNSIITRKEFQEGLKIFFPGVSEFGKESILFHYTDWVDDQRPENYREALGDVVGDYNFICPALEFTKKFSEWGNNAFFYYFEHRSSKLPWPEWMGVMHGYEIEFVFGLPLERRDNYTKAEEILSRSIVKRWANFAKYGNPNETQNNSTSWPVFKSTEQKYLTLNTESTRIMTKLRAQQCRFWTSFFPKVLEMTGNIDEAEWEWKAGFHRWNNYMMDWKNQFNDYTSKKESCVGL
Method: (§1) Human recombinant AChE (EC 3.1.1.7), 5,5′-dithiobis(2-nitrobenzoic acid) (Ellman′s reagent, DTNB), phosphate buffer (PB, 0.1 M, pH 7.4), and acetylthiocholine (ATC) and butyrylthiocholine (BTC), were purchased from Sigma-Aldrich, Prague, Czech Republic. Human plasma was used as a source of BChE and was prepared from heparinized human blood. The blood was centrifuged for 20 min (4 °C, 2300× g) on a Hettich Universal 320R centrifuge. The plasma was separated and stored at […]. Polystyrene Nunc 96-well microplates with a flat bottom shape (ThermoFisher Scientific, Waltham, MA, USA) were used for measuring purposes.
(§2) All of the assays were carried out in a 0.1 M phosphate buffer, pH 7.4. The assay medium (100 µL) consisted of 40 µL of 0.1 M phosphate buffer (pH 7.4), 20 µL of 0.01 M DTNB, 10 µL of the enzyme, and 20 µL of 0.01 M substrate ATC/BTC iodide solution).
(§3) The tested compounds were preincubated for 5 min prior to use. The reaction was initiated immediately upon addition of 20 µL of the substrate. […] Each concentration was assayed in triplicate. Software GraphPad Prism 5 (San Diego, CA, USA) was used in the evaluation of the statistical data.

[5] = target: T2, human recombinant AChE (Homo sapiens, UniProt P22303); experiment: biochemical; type: biochemical; conditions: mean of at least three experiments
T2 construct: purchased Sigma-Aldrich, Prague, Czech Republic
T2 sequence (P22303 32-614): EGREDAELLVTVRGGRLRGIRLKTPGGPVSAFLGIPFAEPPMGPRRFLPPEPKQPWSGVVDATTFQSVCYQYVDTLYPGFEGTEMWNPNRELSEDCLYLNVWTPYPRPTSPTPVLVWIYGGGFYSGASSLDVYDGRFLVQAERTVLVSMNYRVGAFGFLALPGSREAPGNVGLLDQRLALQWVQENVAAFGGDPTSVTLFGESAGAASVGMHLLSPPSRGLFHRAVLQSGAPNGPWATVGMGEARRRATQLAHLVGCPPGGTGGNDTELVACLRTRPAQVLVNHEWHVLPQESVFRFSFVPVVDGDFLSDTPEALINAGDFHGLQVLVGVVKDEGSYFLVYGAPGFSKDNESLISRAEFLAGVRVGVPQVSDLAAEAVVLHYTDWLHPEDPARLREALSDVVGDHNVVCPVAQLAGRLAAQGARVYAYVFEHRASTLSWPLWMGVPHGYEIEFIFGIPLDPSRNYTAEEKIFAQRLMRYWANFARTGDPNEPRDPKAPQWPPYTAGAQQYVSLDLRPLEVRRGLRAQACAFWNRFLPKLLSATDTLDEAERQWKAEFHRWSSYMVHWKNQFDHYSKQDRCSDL
Method: as §1, §2, §3

COC(=O)Cc1cc(=O)oc2cc(OCCCCCCCCN3CCN(CCNC(=O)Cc4cc(=O)oc5cc(O)ccc45)CC3)ccc12 [12e, Methyl 2-[7-({2-[4-(2-{[2-(7-hydroxy-2-oxo-2H-4-chromenyl)acetyl]amino}etyl)piperazino]oktyl}oxy)-2-oxo-2H-4-chromenyl]acetate]
Cell viability of A549 (in words) [1]: reduced cell viability at a concentration of 65 μM | Number of proliferating cells (Ki67 index) ([2]; 35 µM): 59.4 ± 2.6% | Number of proliferating cells (Ki67 index) ([2]; 65 µM): 16.5 ± 12.9% | BBB permeability prediction (in words) ([3]; PAMPA): positive outcome; also recorded: high probability of BBB permeability; also recorded: high probability to cross the BBB | Papp ([3]; PAMPA, pH 7.4): 13.4 ± 3.56 ×10⁻⁶ cm/s | CNS Predicted Availability ([3]; classification from PAMPA-BBB Pe): CNS+ (CNS+: high BBB permeation predicted with Pe (×10^−6 cm s^−1) > 4.0) | IC50 ± S.E.M. hBChE [4]: did not show inhibitory activity | IC50 ([4]; read-out: IC50 ± S.E.M. hBChE): > 500 µM | IC50 ± S.E.M. hAChE [5]: did not show inhibitory activity | IC50 ([5]; read-out: IC50 ± S.E.M. hAChE): > 500 µM
